Measured values: ChEMBL document CHEMBL1132264, “Low-molecular-weight anti-HIV-1 peptides from the amino-terminal sequence of RANTES: possible lead compounds for coreceptor-directed anti-HIV-1 agents” (1999)
Where a SMILES comes first, the peptide text is derived from it.

Assays:
[1] = tested on: Human immunodeficiency virus 1; assay: Anti-HIV-1 activity of phytohemagglutininin activated peripheral blood mononuclear cells infected with the macrophage-tropic HIV-1 virus (JRCSF) at 100 nM; assay type: functional
[2] = tested on: Human immunodeficiency virus 1; assay: Anti-HIV-1 activity of phytohemagglutininin activated peripheral blood mononuclear cells infected with the macrophage-tropic HIV-1 virus (JRCSF) at 10 nM; assay type: functional

SMILES	inhibition at 0.1 µM [1] [%]	inhibition at 0.01 µM [2] [%]
CC(=O)N[C@@H](CO)C(=O)N1CCC[C@H]1C(=O)N[C@@H](Cc1ccc(O)cc1)C(=O)N[C@@H](CO)C(=O)N[C@@H](CO)C(=O)N[C@@H](CC(=O)O)C(=O)N[C@H](C(=O)N[C@H](C(=O)N1CCC[C@H]1C(=O)N[C@@H](C)C(N)=O)[C@@H](C)O)[C@@H](C)O (Ac-SPYSSDTTPA-NH2)	69	51
C[C@H](NC(=O)[C@@H]1CCCN1C(=O)[C@@H](NC(=O)[C@@H](NC(=O)[C@@H](N)CC(=O)O)[C@@H](C)O)[C@@H](C)O)C(=O)O (H-DTTPA-OH)	29	18
C[C@H](NC(=O)[C@@H]1CCCN1C(=O)[C@@H](NC(=O)[C@@H](NC(=O)[C@H](CC(=O)O)NC(=O)[C@H](CO)NC(=O)[C@H](CO)NC(=O)[C@@H](N)Cc1ccc(O)cc1)[C@@H](C)O)[C@@H](C)O)C(=O)O (H-YSSDTTPA-OH)	34	41
C[C@H](NC(=O)[C@@H]1CCCN1C(=O)[C@@H](NC(=O)[C@@H](NC(=O)[C@H](CC(=O)O)NC(=O)[C@H](CO)NC(=O)[C@@H](N)CO)[C@@H](C)O)[C@@H](C)O)C(=O)O (H-SSDTTPA-OH)	22	22
C[C@H](NC(=O)[C@@H]1CCCN1C(=O)[C@@H](NC(=O)[C@@H](N)[C@@H](C)O)[C@@H](C)O)C(=O)O (H-TTPA-OH)	0	0
C[C@H](NC(=O)[C@@H]1CCCN1C(=O)[C@@H](NC(=O)[C@@H](NC(=O)[C@H](CC(=O)O)NC(=O)[C@H](CO)NC(=O)[C@H](CO)NC(=O)[C@H](Cc1ccc(O)cc1)NC(=O)[C@@H]1CCCN1)[C@@H](C)O)[C@@H](C)O)C(=O)O [PYSSDTTPA] (H-PYSSDTTPA-OH)	39	24
CC(=O)N[C@@H](CC(=O)O)C(=O)N[C@H](C(=O)N[C@H](C(=O)N1CCC[C@H]1C(=O)N[C@@H](C)C(N)=O)[C@@H](C)O)[C@@H](C)O (Ac-DTTPA-NH2)	46	43
C[C@H](NC(=O)[C@@H]1CCCN1C(=O)[C@@H](NC(=O)[C@@H](NC(=O)[C@H](CC(=O)O)NC(=O)[C@@H](N)CO)[C@@H](C)O)[C@@H](C)O)C(=O)O (H-SDTTPA-OH)	4	9
